# From US6737383B1, “Herbicidal oxadiazolidines” (priority 1999, dated 2004)
# Key:
# [1] = tested on: cocklebur; experiment: Test B pre/postemergence cocklebur; type: in vivo, Xanthium strumarium; details: Preemergence
# Outline: (§1)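 Herbicidal effect was estimated by eye on a ten-point control scale after plants spent twelve to sixteen days in a greenhouse following soil or foliar treatment. Foliar sprays targeted plants at one to four leaves; all doses were formulated in a non-phytotoxic solvent with surfactant.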
# [2] = tested on: crabgrass; experiment: Test B pre/postemergence crabgrass; type: in vivo, Digitaria sanguinalis; details: Preemergence
# Outline: as §1
# [3] = tested on: wild oat; experiment: Test B pre/postemergence wild oat; type: in vivo, Avena fatua; details: Preemergence, scale of 0 to 10 where 0 is no effect and 10 is complete control
# Outline: as §1
# [4] = tested on: surinam grass; experiment: Test B pre/postemergence surinam grass; type: in vivo, Brachiaria decumbens; details: Preemergence
# Outline: as §1
# [5] = tested on: morningglory; experiment: Test B pre/postemergence morningglory; type: in vivo, Ipomoea hederacea; details: Preemergence, scale of 0 to 10 where 0 is no effect and 10 is complete control
# Outline: as §1
# [6] = tested on: purple nutsedge; experiment: Test B pre/postemergence purple nutsedge; type: in vivo, Cyperus rotundus; details: Preemergence, Rate 125 g/ha; scale of 0 to 10 where 0 is no effect and 10 is complete control
# Outline: as §1
# [7] = tested on: wheat; experiment: Test B pre/postemergence wheat; type: in vivo, Triticum aestivum; details: Preemergence, scale of 0 to 10 where 0 is no effect and 10 is complete control
# Outline: as §1
# [8] = tested on: blackgrass; experiment: Test B pre/postemergence blackgrass; type: in vivo, Alopecurus myosuroides; details: Preemergence
# Outline: as §1
# [9] = tested on: soybean; experiment: Test B pre/postemergence soybean; type: in vivo, Glycine max; details: Preemergence, scale of 0 to 10 where 0 is no effect and 10 is complete control
# Outline: as §1
# [10] = tested on: rape; experiment: Test B pre/postemergence rape; type: in vivo, Brassica napus; details: Preemergence, scale of 0 to 10 where 0 is no effect and 10 is complete control
# Outline: as §1
# [11] = tested on: pigweed; experiment: Test B pre/postemergence pigweed; type: in vivo, Amaranthus retroflexus; details: Preemergence, scale of 0 to 10 where 0 is no effect and 10 is complete control
# Outline: as §1
# [12] = tested on: corn; experiment: Test B pre/postemergence corn; type: in vivo, Zea mays; details: Preemergence
# Outline: as §1
# [13] = tested on: bedstraw; experiment: Test B pre/postemergence bedstraw; type: in vivo, Galium aparine; details: Preemergence
# Outline: as §1
# [14] = tested on: sugar beet; experiment: Test B pre/postemergence sugar beet; type: in vivo, Beta vulgaris; details: Preemergence, scale of 0 to 10 where 0 is no effect and 10 is complete control
# Outline: as §1
# [15] = tested on: giant foxtail; experiment: Test B pre/postemergence giant foxtail; type: in vivo, Setaria faberii; details: Preemergence, scale of 0 to 10 where 0 is no effect and 10 is complete control
# Outline: as §1
# [16] = tested on: velvetleaf; experiment: Test B pre/postemergence velvetleaf; type: in vivo, Abutilon theophrasti; details: Preemergence, scale of 0 to 10 where 0 is no effect and 10 is complete control
# Outline: as §1
# [17] = Rate 62 g/ha, scale of 0 to 10 where 0 is no effect and 10 is complete control
# [18] = Rate 125 g/ha, scale of 0 to 10 where 0 is no effect and 10 is complete control
# [19] = Rate 250 g/ha, scale 0 to 10 (0 no effect, 10 complete control)
# [20] = Rate 500 g/ha, scale of 0 to 10 where 0 is no effect and 10 is complete control
compound,measurement,setting,value
CC(C)N(C(=O)n1oc(=O)n(C(C)C=O)c1=O)c1ccccc1 (centres unmarked) [Compound 693],Cocklebur plant response rating,[1]; [17],0
same,"Plant response rating, Cocklebur",[1]; [18],0
same,"Plant response rating, Cocklebur",[1]; [19],0
same,"Plant response rating, Cocklebur",[1]; [20],0
same,Crabgrass plant response rating,[2]; [17],0
same,"Plant response rating, Crabgrass",[2]; [18],0
same,"Plant response rating, Crabgrass",[2]; [19],0
same,Wild oats plant response rating,[3]; Rate 62 g/ha,0
same,"Plant response rating, Wild oats",[3]; Rate 125 g/ha,0
same,B. signalgrass plant response rating,[4]; [17],0
same,"Plant response rating, B. signalgrass",[4]; [18],0
same,"Plant response rating, B. signalgrass",[4]; [19],0
same,"Plant response rating, B. signalgrass",[4]; [20],0
same,Morningglory plant response rating,[5]; Rate 62 g/ha,0
same,"Plant response rating, Morningglory",[5]; Rate 125 g/ha,0
same,"Plant response rating, Nutsedge",[6],0
same,Wheat plant response rating,[7]; Rate 62 g/ha,0
same,"Plant response rating, Wheat",[7]; Rate 125 g/ha,0
same,Blackgrass plant response rating,[8]; [17],0
same,"Plant response rating, Blackgrass",[8]; [18],0
same,"Plant response rating, Blackgrass",[8]; [19],0
same,"Plant response rating, Blackgrass",[8]; [20],2
same,Soybean plant response rating,[9]; Rate 62 g/ha,0
same,"Plant response rating, Soybean",[9]; Rate 125 g/ha,0
same,Rape plant response rating,[10]; Rate 62 g/ha,0
same,"Plant response rating, Rape",[10]; Rate 125 g/ha,0
same,Redroot pigweed plant response rating,[11]; Rate 62 g/ha,0
same,"Plant response rating, Redroot pigweed",[11]; Rate 125 g/ha,0
same,Corn plant response rating,[12]; [17],0
same,"Plant response rating, Corn",[12]; [18],0
same,"Plant response rating, Corn",[12]; [19],0
same,Bedstraw plant response rating,[13]; [17],0
same,"Plant response rating, Bedstraw",[13]; [18],0
same,"Plant response rating, Bedstraw",[13]; [19],0
same,"Plant response rating, Bedstraw",[13]; [20],0
same,Sugarbeets plant response rating,[14]; Rate 62 g/ha,0
same,"Plant response rating, Sugarbeets",[14]; Rate 125 g/ha,0
same,Giant foxtail plant response rating,[15]; Rate 62 g/ha,0
same,"Plant response rating, Giant foxtail",[15]; Rate 125 g/ha,0
same,Velvetleaf plant response rating,[16]; Rate 62 g/ha,0
same,"Plant response rating, Velvetleaf",[16]; Rate 125 g/ha,0
